Values of other authors, collected in US20220184095A1 (Mylan Specialty L.P., priority 2019, published 2022).

Conditions: orally delivered, humans

- Tmax (time to reach maximum concentration): 4 to 6 h
- time to reach the therapeutic concentration that enables the onset of action: 2 to 3 h
Structure (SMILES): Cc1cnc(NC(=O)C2=C(O)c3ccccc3S(=O)(=O)N2C)s1 [meloxicam, 4-hydroxy-2-methyl-N-(5-methyl-2-thiazolyl)-2H-1,2-benzothiazine-3-carboxamide-1,1-dioxide]
